Test results taken from US4122179A, “Acid addition salts of vincamine and apovincamine” (priority 1976, dated 1978).
Structures can show the parent of a compound that is named as a salt.

Experiments:
[1] = Solubility; type: physicochemical; conditions: qualitative; for solubility in alcohol: alcohol (ethyl alcohol)
[2] = system: vertebral arteria; assay: Cerebral vasodilating activity: hematic flow at the vertebral arteria after i.v. administration; type: in vivo; conditions: i.v. (femoral vein), 5 mg/kg of vincamine/apovincamine, anesthetized dog, 4 animals per compound
Method: (§1) For the compounds of the present invention a number of pharmacological and pharmacokinetic tests have been carried out. […] As regards the pharmacological and pharmacodynamic activity, it has been studied on the percent variations of the hematic flow, as recorded at the vertebral arteria in the dog after administration of the tested compounds. As regards the pharmacokinetic tests, the compounds were administered per oral route to the Wistar rat, and the hematic levels at different times from the administration were measured.
The cerebral vasodilating activity was studied in the anestetized dog, by measuring, by means of Statham periarterial electromagnetic flowmeters, the hematic flow at the level of the […] which, in such animal species, constitutes the greatest blood supply to the brain.
The resuls are reported in the TABLE 2 (last column) as the percent variations of the flow measured at the level of the ledt vertebral arteria after the i.v. administration of the several compounds to be tested to groups of 4 animals for each compound. The results also confirm that the compounds of the invention are all endowed with a vasodilating activity at the level of the cerebral circulus, such an action being, for some compounds, much more remarkable than that of vincamine and apovincamine.

[3] = Hematic levels at different times after oral administration (absorption); type: in vivo, Wistar rat; conditions: 100 mg/kg expressed as vincamine/apovincamine, 5% carboxymethyl cellulose suspension
Method: as §1
For the evaluation of the absorption, all the compounds have been orally administered at the dosage of 100 mg/kg, expressed as vincamine and apovincamine, in form of a suspension in a 5% carboxymethyl cellulose solution.
The absorption was determined by evaulating the hematic levels at the following times (minutes) : 0, 30, 120, 240, 480, 10 hours and 12 hours, in order also to assess the time from the administration (max conc.time) the maximum absorption occurred.
The vincamine and apovincamine concentrations were assessed by chromatographic method.
For the evaluation of the prolonged action of the salts and of the adducts of vincamine and apovincamine the following criterium was adopted; as derivatives having a long-acting effect, there are considered those which, 120 minutes after the administration, show hematic levels higher than those obtained with vincamine and apovincamine.

[4] = LD50 / acute toxicity, intraperitoneal route; type: in vivo; conditions: i.p.; for Toxicity (Gleason): Gleason class in words, classes not defined

Compound | solubility in alcohol [1] | solubility in the common (organic) solvents [1] | solubility in water [1] | % increase (percent variation of hematic flow, left vertebral arteria) ([2]; 5 mg/kg) [%] | Max. conc. time ([3]; 100 mg/kg) [min] | LD50 [4] [mg/kg] | Toxicity (Gleason) [4] | % increase (percent variation of hematic flow, left vertebral arteria) [2] [%] | Max. conc. time [3] [min] | solubility (solvent not given) ([1]; solvent not stated)
CC[C@]12CCCN3CCc4c(n(c5ccccc45)[C@@](O)(C(=O)OC)C1)[C@@H]32 [Example 14.a, Vincamine L(+)-O,O-dibenzoyltartrate] | poorly soluble | insoluble | poorly soluble | 29.6 | 60 | 950 | modest |  |  | 
CC[C@@]12C=C(C(=O)OC)n3c4c(c5ccccc53)CCN(CCC1)[C@H]42 [Example 3.b, Apovincamine glucose-1-phosphate] |  |  | soluble | 26.4 | 120 | 850 | modest |  |  | 
CC[C@]12CCCN3CCc4c(n(c5ccccc45)[C@@](O)(C(=O)OC)C1)[C@@H]32 [Example 29.a, Vincamine dihydroxyphenylalanine (DOPA)] |  | practically insoluble | practically insoluble | 38.2 | 20 | 1500 | light |  |  | 
CC[C@]12CCCN3CCc4c(n(c5ccccc45)[C@@](O)(C(=O)OC)C1)[C@@H]32 [Example 6.a, Vincamine 2,5-dihydroxybenzoate] | insoluble |  | insoluble | 28.0 | 120 | 800 | modest |  |  | 
CC[C@]12CCCN3CCc4c(n(c5ccccc45)[C@@](O)(C(=O)OC)C1)[C@@H]32 [Example 7.a, Vincamine 3,5-dihydroxybenzoate] | insoluble |  | insoluble | 26.3 | 240 | 850 | modest |  |  | 
CC[C@@]12C=C(C(=O)OC)n3c4c(c5ccccc53)CCN(CCC1)[C@H]42 [Example 4.b, Apovincamine glucose-1-phosphate, acid salt] |  |  | soluble | 26.1 | 240 | 600 | modest |  |  | 
CC[C@]12CCCN3CCc4c(n(c5ccccc45)[C@@](O)(C(=O)OC)C1)[C@@H]32 [Example 25.a, Vincamine (D,L)-mandelate] | soluble | insoluble | insoluble | 39.4 | 20 | 900 | modest |  |  | 
CC[C@@]12C=C(C(=O)OC)n3c4c(c5ccccc53)CCN(CCC1)[C@H]42 [Example 8.b, Apovincamine p-toluensulfonate] | soluble |  | insoluble | 29.0 | 480 | 900 | modest |  |  | 
Vincamine-pectin (2:1 adduct) [Example 31.a] |  | practically insoluble | practically insoluble |  |  | 2000 | negligible | 24.9 | 240 | 
Apovincamine-pectin (2:1 adduct) [Example 31.b] | poorly soluble |  | insoluble |  |  | 900 | light | 28.2 | 480 | 
Vincamine pectin (1:1 adduct) [Example 30.a] |  | insoluble | insoluble |  |  | 2000 | negligible | 40.0 | 20 | 
CC[C@@]12C=C(C(=O)OC)n3c4c(c5ccccc53)CCN(CCC1)[C@H]42 [Example 7.b, Apovincamine 3,5-dihydroxybenzoate] | soluble |  | insoluble | 26.0 | 240 | 750 | modest |  |  | 
Apovincamine-pectin (1:1 adduct) [Example 30.b] | little soluble |  |  |  |  | 750 | modest | 39.6 | 60 | 
CC[C@]12CCCN3CCc4c(n(c5ccccc45)[C@@](O)(C(=O)OC)C1)[C@@H]32 [Example 12.a, Vincamine furoate (furan-2-carboxylate)] | insoluble |  | insoluble | 24.8 | 120 | 800 | modest |  |  | 
CC[C@]12CCCN3CCc4c(n(c5ccccc45)[C@@](O)(C(=O)OC)C1)[C@@H]32 [Example 9.a, Vincamine clofibrate (2-(p-chlorophenoxy)-2-methylpropionate)] | soluble |  | insoluble | 22.1 | 480 | 900 | modest |  |  | 
CC[C@@]12C=C(C(=O)OC)n3c4c(c5ccccc53)CCN(CCC1)[C@H]42 [Example 29.b, Apovincamine dihydroxyphenylalanine] |  |  |  | 41.3 | 120 | 900 | light |  |  | insoluble
CC[C@@]12C=C(C(=O)OC)n3c4c(c5ccccc53)CCN(CCC1)[C@H]42 [Example 5.b, Apovincamine 2,6-dihydroxybenzoate] | poorly soluble |  | insoluble | 25.4 | 120 | 750 | modest |  |  | 
CC[C@@]12C=C(C(=O)OC)n3c4c(c5ccccc53)CCN(CCC1)[C@H]42 [Example 28.b, Apovincamine salicylate] | soluble |  |  | 26.7 | 240 | 750 | modest |  |  | 
CC[C@@]12C=C(C(=O)OC)n3c4c(c5ccccc53)CCN(CCC1)[C@H]42 [Example 26.b, Apovincamine indolyl-3-acetate] | poorly soluble |  | insoluble | 28.7 | 120 | 750 | modest |  |  | 
CC[C@@]12C=C(C(=O)OC)n3c4c(c5ccccc53)CCN(CCC1)[C@H]42 [Example 10.b, Apovincamine pivalate] | soluble |  | insoluble | 31.4 | 480 | 750 | modest |  |  | 
CC[C@@]12C=C(C(=O)OC)n3c4c(c5ccccc53)CCN(CCC1)[C@H]42 [Example 2.b, Apovineamine 2,4-dihydroxy-benzoate] | soluble | not |  | 29.0 | 120 | 650 | modest |  |  | 
CC[C@]12CCCN3CCc4c(n(c5ccccc45)[C@@](O)(C(=O)OC)C1)[C@@H]32 [Example 18.a, Vincamine enanthate] |  | insoluble |  | 27.7 | 60 | 750 | modest |  |  | 
